Measurements reported in the NIST ThermoML archive (doi:10.1016/j.jct.2014.04.022).
Where “and” joins values, the source holds several entries; their conditions need not be identical. Equal entries are not always repeated. ± gives the expanded uncertainty stated by the source.

Experiments:
[1] = Molar enthalpy of transition or fusion; conditions: Crystal; DSC
[2] = molar heat capacity at constant pressure; conditions: 101.33 kPa

CC12CCC(CC1)C(C)(C)O2 [1,3,3-trimethyl-2-oxabicyclo[2.2.2]octane]
vapor or sublimation pressure (238.2 K, Crystal, Closed cell (Static) method): 0.00051 ± 0.00011 kPa and 0.000512 ± 0.00011 kPa | vapor or sublimation pressure (243.2 K, Crystal, Closed cell (Static) method): 0.001022 ± 0.00011 kPa and 0.001023 ± 0.00011 kPa | vapor or sublimation pressure (248.15 K, Crystal, Closed cell (Static) method): 0.00197 ± 0.00013 kPa and 0.001971 ± 0.00013 kPa and 0.001972 ± 0.00013 kPa | vapor or sublimation pressure (253.15 K, Crystal, Closed cell (Static) method): 0.003705 ± 0.00017 kPa and 0.003709 ± 0.00017 kPa and 0.003703 ± 0.00017 kPa | vapor or sublimation pressure (253.15 K, Metastable liquid, Closed cell (Static) method): 0.006217 ± 0.00026 kPa and 0.006221 ± 0.00026 kPa and 0.006222 ± 0.00026 kPa | vapor or sublimation pressure (258.15 K, Crystal, Closed cell (Static) method): 0.006771 ± 0.00028 kPa and 0.006776 ± 0.00028 kPa and 0.006782 ± 0.00028 kPa | vapor or sublimation pressure (258.15 K, Metastable liquid, Closed cell (Static) method): 0.01 ± 0.0004 kPa and 0.01001 ± 0.0004 kPa | vapor or sublimation pressure (263.15 K, Crystal, Closed cell (Static) method): 0.01211 ± 0.00048 kPa | vapor or sublimation pressure (263.15 K, Metastable liquid, Closed cell (Static) method): 0.01574 ± 0.00056 kPa and 0.01575 ± 0.00056 kPa and 0.01576 ± 0.00056 kPa | vapor or sublimation pressure (268.15 K, Crystal, Closed cell (Static) method): 0.02109 ± 0.00064 kPa and 0.0211 ± 0.00064 kPa | vapor or sublimation pressure (268.15 K, Metastable liquid, Closed cell (Static) method): 0.02431 ± 0.00069 kPa [middle of 4 runs] | vapor or sublimation pressure (273.15 K, Crystal, Closed cell (Static) method): 0.03596 ± 0.00088 kPa and 0.03597 ± 0.00088 kPa | vapor or sublimation pressure (273.65 K, Metastable liquid, Closed cell (Static) method): 0.03833 ± 0.00092 kPa and 0.03835 ± 0.00092 kPa and 0.03836 ± 0.00092 kPa | vapor or sublimation pressure (278.15 K, Closed cell (Static) method, Liquid): 0.05478 ± 0.0012 kPa and 0.0548 ± 0.0012 kPa | vapor or sublimation pressure (283.15 K, Closed cell (Static) method, Liquid): 0.0801 ± 0.0016 kPa and 0.08012 ± 0.0016 kPa | vapor or sublimation pressure (288.15 K, Closed cell (Static) method, Liquid): 0.1151 ± 0.0022 kPa and 0.1152 ± 0.0022 kPa | vapor or sublimation pressure (293.15 K, Closed cell (Static) method, Liquid): 0.1637 ± 0.0027 kPa | vapor or sublimation pressure (298.15 K, Closed cell (Static) method, Liquid): 0.2295 ± 0.0035 kPa and 0.2296 ± 0.0035 kPa | vapor or sublimation pressure (303.15 K, Closed cell (Static) method, Liquid): 0.3169 ± 0.0046 kPa and 0.317 ± 0.0046 kPa | Normal melting temperature (Crystal, DTA): 1.0 ± 0.5 °C | Molar enthalpy of transition or fusion [1]: 3.3 ± 0.0956 kcal/mol | molar heat capacity at constant pressure ([2]; 273.4 K, Metastable liquid, Large sample (1 g) DSC): 257.8 ± 4.5 J/K/mol | molar heat capacity at constant pressure ([2]; 278.5 K, Large sample (1 g) DSC, Liquid): 260.2 ± 4.5 J/K/mol | molar heat capacity at constant pressure ([2]; 283.6 K, Large sample (1 g) DSC, Liquid): 262.3 ± 4.6 J/K/mol | molar heat capacity at constant pressure ([2]; 288.7 K, Large sample (1 g) DSC, Liquid): 264.6 ± 4.6 J/K/mol | molar heat capacity at constant pressure ([2]; 293.8 K, Large sample (1 g) DSC, Liquid): 267.3 ± 4.7 J/K/mol | molar heat capacity at constant pressure ([2]; 298.9 K, Large sample (1 g) DSC, Liquid): 270.7 ± 4.7 J/K/mol | molar heat capacity at constant pressure ([2]; 304 K, Large sample (1 g) DSC, Liquid): 273.3 ± 4.7 J/K/mol | molar heat capacity at constant pressure ([2]; 309.1 K, Large sample (1 g) DSC, Liquid): 276.1 ± 4.8 J/K/mol | molar heat capacity at constant pressure ([2]; 314.2 K, Large sample (1 g) DSC, Liquid): 279.3 ± 4.8 J/K/mol | molar heat capacity at constant pressure ([2]; 319.4 K, Large sample (1 g) DSC, Liquid): 281.4 ± 4.9 J/K/mol | molar heat capacity at constant pressure ([2]; 324.5 K, Large sample (1 g) DSC, Liquid): 284.6 ± 4.9 J/K/mol | molar heat capacity at constant pressure ([2]; 329.6 K, Large sample (1 g) DSC, Liquid): 288 ± 5 J/K/mol | molar heat capacity at constant pressure ([2]; 334.7 K, Large sample (1 g) DSC, Liquid): 290.9 ± 5.1 J/K/mol | molar heat capacity at constant pressure ([2]; 339.8 K, Large sample (1 g) DSC, Liquid): 294.2 ± 5.1 J/K/mol | molar heat capacity at constant pressure ([2]; 344.9 K, Large sample (1 g) DSC, Liquid): 297.3 ± 5.2 J/K/mol | molar heat capacity at constant pressure ([2]; 350 K, Large sample (1 g) DSC, Liquid): 301.2 ± 5.2 J/K/mol | molar heat capacity at constant pressure ([2]; 355.1 K, Large sample (1 g) DSC, Liquid): 304.6 ± 5.2 J/K/mol

CC1=CC[C@@H]2[C@H](C1)C2(C)C [(+)-3-carene]
vapor or sublimation pressure (238.2 K, Liquid, Closed cell (Static) method): 0.00159 ± 0.00012 kPa and 0.001592 ± 0.00012 kPa and 0.001594 ± 0.00012 kPa | vapor or sublimation pressure (243.2 K, Liquid, Closed cell (Static) method): 0.002721 ± 0.00015 kPa and 0.002723 ± 0.00015 kPa | vapor or sublimation pressure (248.15 K, Liquid, Closed cell (Static) method): 0.004526 ± 0.0002 kPa and 0.004529 ± 0.0002 kPa | vapor or sublimation pressure (253.15 K, Liquid, Closed cell (Static) method): 0.007382 ± 0.0003 kPa and 0.007383 ± 0.0003 kPa and 0.007377 ± 0.0003 kPa | vapor or sublimation pressure (258.15 K, Liquid, Closed cell (Static) method): 0.01179 ± 0.00047 kPa and 0.0118 ± 0.00047 kPa | vapor or sublimation pressure (263.15 K, Liquid, Closed cell (Static) method): 0.01845 ± 0.0006 kPa and 0.01846 ± 0.0006 kPa | vapor or sublimation pressure (268.15 K, Liquid, Closed cell (Static) method): 0.02832 ± 0.00075 kPa and 0.02833 ± 0.00075 kPa | vapor or sublimation pressure (273.15 K, Liquid): 0.04241 ± 0.0022 kPa and 0.04243 ± 0.0022 kPa and 0.04244 ± 0.0022 kPa | vapor or sublimation pressure (273.15 K, Liquid, Closed cell (Static) method): 0.04266 ± 0.00099 kPa and 0.04267 ± 0.00099 kPa | vapor or sublimation pressure (273.65 K, Liquid, Closed cell (Static) method): 0.0444 ± 0.001 kPa and 0.04442 ± 0.001 kPa and 0.04443 ± 0.001 kPa | vapor or sublimation pressure (278.15 K, Liquid): 0.06282 ± 0.0029 kPa and 0.06283 ± 0.0029 kPa | vapor or sublimation pressure (278.15 K, Liquid, Closed cell (Static) method): 0.06318 ± 0.0014 kPa and 0.06319 ± 0.0014 kPa | vapor or sublimation pressure (283.15 K, Liquid): 0.09152 ± 0.004 kPa and 0.09153 ± 0.004 kPa and 0.09154 ± 0.004 kPa | vapor or sublimation pressure (283.15 K, Liquid, Closed cell (Static) method): 0.09204 ± 0.0019 kPa and 0.09205 ± 0.0019 kPa | vapor or sublimation pressure (288.15 K, Liquid): 0.1313 ± 0.0051 kPa | vapor or sublimation pressure (288.15 K, Liquid, Closed cell (Static) method): 0.1321 ± 0.0023 kPa | vapor or sublimation pressure (293.15 K, Liquid): 0.1855 ± 0.0065 kPa | vapor or sublimation pressure (293.15 K, Liquid, Closed cell (Static) method): 0.1868 ± 0.003 kPa | vapor or sublimation pressure (298.15 K, Liquid): 0.2584 ± 0.0086 kPa and 0.2585 ± 0.0086 kPa | vapor or sublimation pressure (298.15 K, Liquid, Closed cell (Static) method): 0.2604 ± 0.0039 kPa and 0.2605 ± 0.0039 kPa | vapor or sublimation pressure (303.15 K, Liquid): 0.3553 ± 0.011 kPa | vapor or sublimation pressure (303.15 K, Liquid, Closed cell (Static) method): 0.3585 ± 0.0051 kPa | vapor or sublimation pressure (308.15 K, Liquid): 0.4825 ± 0.015 kPa | vapor or sublimation pressure (308.15 K, Liquid, Closed cell (Static) method): 0.4873 ± 0.0066 kPa | molar heat capacity at constant pressure ([2]; 258.1 K, Liquid): 235.6 ± 7.3 J/K/mol | molar heat capacity at constant pressure ([2]; 260.1 K, Liquid, Large sample (1 g) DSC): 236.9 ± 4.1 J/K/mol | molar heat capacity at constant pressure ([2]; 263.2 K, Liquid): 237.8 ± 7.4 J/K/mol | molar heat capacity at constant pressure ([2]; 265 K, Liquid, Large sample (1 g) DSC): 239.2 ± 4.2 J/K/mol | molar heat capacity at constant pressure ([2]; 268.3 K, Liquid): 240.2 ± 7.5 J/K/mol | molar heat capacity at constant pressure ([2]; 270 K, Liquid, Large sample (1 g) DSC): 241.6 ± 4.2 J/K/mol | molar heat capacity at constant pressure ([2]; 273.4 K, Liquid): 242.4 ± 7.5 J/K/mol | molar heat capacity at constant pressure ([2]; 275 K, Liquid, Large sample (1 g) DSC): 244.1 ± 4.2 J/K/mol | molar heat capacity at constant pressure ([2]; 278.5 K, Liquid): 244.9 ± 7.6 J/K/mol | molar heat capacity at constant pressure ([2]; 280 K, Liquid, Large sample (1 g) DSC): 246.3 ± 4.2 J/K/mol | molar heat capacity at constant pressure ([2]; 283.6 K, Liquid): 247.2 ± 7.6 J/K/mol | molar heat capacity at constant pressure ([2]; 285 K, Liquid, Large sample (1 g) DSC): 248.4 ± 4.3 J/K/mol | molar heat capacity at constant pressure ([2]; 288.7 K, Liquid): 249.6 ± 7.7 J/K/mol | molar heat capacity at constant pressure ([2]; 290 K, Liquid, Large sample (1 g) DSC): 250.6 ± 4.3 J/K/mol | molar heat capacity at constant pressure ([2]; 293.8 K, Liquid): 251.9 ± 7.8 J/K/mol | molar heat capacity at constant pressure ([2]; 295 K, Liquid, Large sample (1 g) DSC): 252.6 ± 4.4 J/K/mol | molar heat capacity at constant pressure ([2]; 298.9 K, Liquid): 254.3 ± 7.9 J/K/mol | molar heat capacity at constant pressure ([2]; 300 K, Liquid, Large sample (1 g) DSC): 254.8 ± 4.4 J/K/mol | molar heat capacity at constant pressure ([2]; 304 K, Liquid): 256.6 ± 8 J/K/mol | molar heat capacity at constant pressure ([2]; 305 K, Liquid, Large sample (1 g) DSC): 257.2 ± 4.5 J/K/mol | molar heat capacity at constant pressure ([2]; 309.1 K, Liquid): 259 ± 8.1 J/K/mol | molar heat capacity at constant pressure ([2]; 310 K, Liquid, Large sample (1 g) DSC): 259.6 ± 4.5 J/K/mol | molar heat capacity at constant pressure ([2]; 314.2 K, Liquid): 261.4 ± 8.1 J/K/mol | molar heat capacity at constant pressure ([2]; 319.4 K, Liquid): 263.7 ± 8.1 J/K/mol | molar heat capacity at constant pressure ([2]; 324.5 K, Liquid): 266.3 ± 8.2 J/K/mol | molar heat capacity at constant pressure ([2]; 329.6 K, Liquid): 268.9 ± 8.3 J/K/mol | molar heat capacity at constant pressure ([2]; 334.7 K, Liquid): 271.5 ± 8.4 J/K/mol | molar heat capacity at constant pressure ([2]; 339.8 K, Liquid): 274 ± 8.5 J/K/mol | molar heat capacity at constant pressure ([2]; 344.9 K, Liquid): 276.6 ± 8.6 J/K/mol | molar heat capacity at constant pressure ([2]; 350 K, Liquid): 279.3 ± 8.6 J/K/mol | molar heat capacity at constant pressure ([2]; 355.1 K, Liquid): 281.8 ± 8.7 J/K/mol
